Results from patent US12343335B2, “Pharmaceutical composition for treating multiple sclerosis on basis of AMPK inhibitory function and zinc homeostasis control function” (ZINCURE CORP., priority 2019, dated 2025).

Key:
spinal cord of EAE mice [1] = assay: Cresyl violet staining of spinal cord of EAE mice (mononuclear cell infiltration); assay type: in vivo, C57BL/6 female mice; conditions: spinal cord white matter, day 21 after EAE induction, vs vehicle
Procedure: (§1) The present inventors induced experimental autoimmune encephalomyelitis (EAE), an animal model of multiple sclerosis, by subcutaneously injecting Myelin oligodendrocyte glycoprotein 35-55 (MOG35-55) peptide antigen into C57BL/6 female mice (FIG. 1A). For this, MOG35-55 (Ana spec, USA) and Complete freund's adjuvant (CFA) were first prepared, and MOG35-55 (2 mg/ml) was dissolved in Phosphate buffered saline (lx PBS, Sigma), and then the 25 ml of CFA was prepared by dispending 25 ml of incomplete freund's adjuvant (IFA. Sigma) in a 50 ml conical tube. Then, in a fume hood, Mycobacterium tuberculosis H37Ra (100 mg; Difco, USA) was added to the IFA in order to prepare CFA and store it in the refrigerator after vortexing before use. Thereafter, MOG35-55 and CFA containing Mycobacterium tuberculosis H37Ra was mixed in the same amount and injected into both flanks of the mice. And then Pertussis toxin (4 μg/ml, List Biological Laboratories, USA) was injected intraperitoneally on the day of immunization and on the second day after immunization. After the immunization, the mice's body weight and clinical symptoms were measured every day, and the degree of EAE progression was evaluated based on specific clinical symptoms. More details on this are provided below. […]

neuronal cell death = conditions: after stroke; Eom J. W. et al., ACS Chem Neurosci. 2019; cited from earlier work
[2] = test system: MOG35-55-induced experimental autoimmune encephalomyelitis (EAE); assay: Long-term EAE model, 45 days after initial immunization; assay type: in vivo, C57BL/6 female mice; conditions: intraperitoneally once a day
Procedure: (§2) The present inventors induced experimental autoimmune encephalomyelitis (EAE), an animal model of multiple sclerosis, by subcutaneously injecting Myelin oligodendrocyte glycoprotein 35-55 (MOG35-55) peptide antigen into C57BL/6 female mice (FIG. 1A). For this, MOG35-55 (Ana spec, USA) and Complete freund's adjuvant (CFA) were first prepared, and MOG35-55 (2 mg/ml) was dissolved in Phosphate buffered saline (lx PBS, Sigma), and then the 25 ml of CFA was prepared by dispending 25 ml of incomplete freund's adjuvant (IFA. Sigma) in a 50 ml conical tube. Then, in a fume hood, Mycobacterium tuberculosis H37Ra (100 mg; Difco, USA) was added to the IFA in order to prepare CFA and store it in the refrigerator after vortexing before use. Thereafter, MOG35-55 and CFA containing Mycobacterium tuberculosis H37Ra was mixed in the same amount and injected into both flanks of the mice. And then Pertussis toxin (4 μg/ml, List Biological Laboratories, USA) was injected intraperitoneally on the day of immunization and on the second day after immunization. After the immunization, the mice's body weight and clinical symptoms were measured every day, and the degree of EAE progression was evaluated based on specific clinical symptoms. More details on this are provided below.
(§3) EAE clinical symptom was evaluated based on previous studies (Jones et al., J. Neuroimmunol. 199(1-2): 83-93. 2008). […]

[3] = test system: MOG35-55-induced experimental autoimmune encephalomyelitis (EAE); assay: EAE clinical symptom assessment and incidence rate, 21 days after immunization; assay type: in vivo, C57BL/6 female mice; conditions: EAE mice, 1H10 intraperitoneally once a day, vs vehicle
Excerpt: The experimental animals used in the present invention are an 8-week-old, C57BL/6 female mice supplied from Dae Han BioLink, Co., Ltd. (Korea). These mice were bred in an environment controlled by temperature and humidity, and feed and water were fed freely.
as §1, with “Thereafter, MOG35-55 and CFA containing Mycobacterium tuberculosis H37Ra was mixed in the same amount and injected into both flanks of the mice. And then Pertussis toxin (4 μg/ml, List Biological Laboratories, USA) was injected intraperitoneally on the day of immunization and on the second day after immunization.” left out, “symptoms.” for “symptoms. More details on this are provided below.”
as §3

[4] = test system: spinal cord white matter of EAE mice; assay: Zinc staining (TSQ) of spinal cord of EAE mice; assay type: in vivo, C57BL/6 female mice; conditions: day 21 after EAE induction
[5] = test system: mouse cortical neuron culture; assay: Intrinsic toxicity in cortical neuron culture, LDH cytotoxicity; assay type: cell-based; conditions: 40 μM
Procedure: The mouse cortical neurons used in the present invention were extracted from the brain of a mouse embryo, and cultured in Dulbecco's modified Eagle's medium (DMEM, Gibco, Grand Island, NY, US) supplemented with 5% fetal bovine serum (FBS) and 5% horse serum (HS) under the condition of 95% humidity, 5% CO2 and 37° C. For activation and differentiation of the cells, the cells were grown to a density of 2×10^4 cells in a 24-well tissue culture plate and cultured in MEM medium without FBS and HS before treatment with zinc and compounds.
Specifically, 40 μM of each of the drugs was treated in a mouse cortical neuron culture, and LDH cytotoxicity was observed after 24 or 48 hours.

spinal cord of EAE mice [6] = assay: Immunohistochemistry of spinal cord of EAE mice (CD4, CD8, CD20, IgG leakage); assay type: in vivo, C57BL/6 female mice
Procedure: as §2
On the 21st day after EAE induction, the present inventors anesthetized mice with urethane and then perfused 4% paraformaldehyde into the heart to fix the spinal cord. And then, an immunohistochemistry was performed using anti-CD4, anti-CD8, and anti-CD20 antibodies […]. Cryosections were reacted with 3% hydrogen peroxide at room temperature for 15 minutes to remove endogenous peroxidase, and then primary antibodies, rat anti-CD4 (1:50, BD Bioscience, CA, USA), anti-CD8 (1:50, BD Bioscience) and goat anti-CD20 (1:50, SantaCruz Biotechnology, USA) antibodies were reacted for 15 hours at 4° C. Thereafter, biotinylated anti-rat IgG or anti-goat IgG (1:250, Vector Laboratories, USA) was reacted at room temperature for 2 hours. […]

O=C1N=C(Nc2cccc(O)c2)S/C1=C\c1c[nH]c2ccccc12 [1H10, (Z)-5-((1H-indol-3-yl)methylene)-2-((3-hydroxyphenyl)amino)thiazol-4(5H)-one]
mononuclear cell infiltration (spinal cord of EAE mice [1]): significantly inhibited
neuronal cell death caused by zinc toxicity, excitory toxicity and oxidative damage (neuronal cell death): reduced
clinical symptoms [2]: significantly reduced
incidence rate [2]: significantly reduced
behavioral disorders (EAE clinical score) [3]: significantly inhibited
incidence rate [3]: suppressed
patch-like TSQ abnormal staining (zinc accumulation) [4]: significantly reduced
intrinsic toxicity (LDH cytotoxicity) ([5]; after 24 hours of drug treatment): 7.81±2.77%
intrinsic toxicity (LDH cytotoxicity) ([5]; after 48 hours of drug treatment): 60.72±8.28%
IgG staining due to damage of BBB (spinal cord of EAE mice [6]; Sham group (no EAE induction), white or gray matter): not detected
infiltration of the T and B cells (CD4, CD8, CD20) (spinal cord of EAE mice [6]; spinal cord white matter, after EAE induction, vs vehicle): significantly inhibited
IgG infiltration (BBB damage) (spinal cord of EAE mice [6]; white and gray matter, 3 weeks after MOG injection): significantly reduced
